{"source": "patent US20230405000A1", "about": "“TABLET FOR USE IN TREATING HUNTINGTON'S DISEASE AND METHOD OF MAKING THE SAME” (PTC THERAPEUTICS, INC., priority 2020, published 2023)", "key": {"HTT mRNA": {"system": "HTT mRNA", "assay": "Phase 1 study: HTT mRNA in whole blood of healthy volunteers (RT-PCR)", "assay_type": "in vivo, human", "excerpt": "(i) To explore the effect of single dose of Compound 1 administered on huntingtin (HTT) premRNA splicing in the blood of healthy subjects; (i) To explore the effect of Compound 1 administered for 14 or up to 21 days on HTT pre-m RNA splicing and HTT protein levels in the blood of healthy subjects; (ii) To explore the effect of single dose of Compound 1 administered (with food) on HTT pre-mRNA splicing in the blood of healthy subjects; and, (iii) To explore the effect of Compound 1 administered for up to 28 days on HTT premRNA splicing and HTT protein levels in the blood of healthy subjects.\nThe single ascending dose (SAD) part of the study was randomized, double-blinded, and placebo controlled in healthy male and female subjects.\nThe multiple ascending (MAD) part of the study was randomized, double-blind, and placebo controlled in healthy male and female subjects. Up to five regimens are planned to be tested in up to 5 cohorts of 8 subjects each (Cohort 2.1 to 2.5). Within each cohort, 6 subjects were to receive Compound 1 and 2 subjects were to receive placebo. Subjects in Cohort 2.1 and 2.2 were to be dosed for 14 days, subjects in Cohort 2.3 to 2.5 were to be dosed for up to 21 days.\nThe amount of HTT mRNA was then evaluated by RT-PCR 6 hours after administration of Compound 1 on day 14.\nResults from measurement of HTT RNA in the whole blood of human subject administered a placebo or 15 or 30 mg of Compound 1, as described in the Multiple Ascending Dose (MAD) study above are illustrated in FIG. 15. HTT splicing was monitored after the final dose at day 14, calculated as % HTT remaining from baseline (pre-dose day 0)."}, "[1]": {"assay": "Compound 1 in CSF and free plasma of non human primates", "assay_type": "in vivo", "description": "The two subjects in this cohort received 30 mg daily dose."}, "Rat toxicology (NOAEL)": {"assay": "Rat toxicology (NOAEL)", "assay_type": "in vivo", "details": "male rats", "description": "The initial dose in the first cohort was ≥ 1/10 of the human equivalent dose (HED) estimated from the NOAEL (no observed adverse effect level) of the (male) rat, which is the most sensitive species, following the FDA guidance on the maximum recommended starting dose (MRSD) and EMA guidelines. The NOAEL of the rat is 6 mg/kg. […] The HED of 0.97 mg/kg was calculated; this scaled in a 70 kg human to 68 mg. Adjusting this dose to 1/10, the dose of the first cohort was 6.8; the actual administered dose will be 5 mg."}, "human HTT": {"system": "human HTT", "assay": "Transgenic mouse models of Huntington's disease", "assay_type": "in vivo", "excerpt": "An international application published as WO2020/005873 identified a genus of compounds that can be used in the treatment of HD, methods of making the same and pharmaceutical formulations of the same. […] At present, only symptomatic treatments are available. Thus, to date, there is no small molecule therapy available to slow the progression of HD. Accordingly, there is a need for small molecule disease-modifying therapies for HD (i.e. therapeutic options that can slow disease progression).\nAt the selected doses of 10 mg QD and 20 mg QD, the predicted percent full-length HTT mRNA decreases are within the target range of 30 to 50% reduction from baseline. […] Therefore, the observed preclinical HTT mRNA changes are anticipated to result in similar decreases in HTT protein levels in HD patients. Thus, based upon the totality of the clinical and preclinical safety data to date, and the anticipated reduction in HTT mRNA and protein derived from clinical data and pharmacokinetic-pharmacodynamic modeling, the doses of 10 mg and 20 mg are expected to be safe, well tolerated, and beneficial to subjects with HD."}, "[2]": {"assay": "Phase 1 study: Compound 1 levels in CSF compared with plasma", "assay_type": "in vivo, human", "excerpt": "The concentrations of Compound 1 in plasma and CSF were to be assessed in an open-label design in healthy male and female subjects. A single dose of Compound 1 was to be administered daily for 7 days in 1 cohort of 6 subjects (Cohort 3.1) The dose level of Part 3 was to be determined based upon a review of the safety, tolerability, and PK data of Part 1 and Part 2 of the study. While the MAD dose was to be determined further in development, that dose and schedule was to be applied to this part of the study.\nEligibility was to be assessed during a screening period of up to 28 days. Subjects were to check into the clinic 1 day before dosing (Day −1). On the morning of Day 1 to Day 7, Compound 1 was to be orally administered after an overnight fast of at least 10 hours each day. Serial sampling of CSF and sampling of plasma for drug concentrations was to be performed on Day 7 The exact timing of the CSF and blood samples was to be determined based on the results of Part 1 and Part 2. Subjects were to be released from the clinic on Day 9 after all required study procedures are completed and if medically appropriate. A follow-up safety phone call was to occur 4 weeks (±1 week) after discharge on Day 9.\nThe CSF sampling enabled the evaluation of pharmacokinetics of Compound 1 in the CSF wherein Compound 1 levels in the CSF were compared with Compound 1 levels in plasma. […] The food effect portion enabled the evaluation of pharmacokinetics of Compound 1 in plasma after administration of a single dose of Compound 1 in healthy subjects."}, "[3]": {"assay": "Phase 1 study: safety and tolerability in healthy subjects", "assay_type": "in vivo, human", "description": "Phase 1 Dose Escalation Study was initiated to assess the safety and pharmacokinetics of Compound 1 Oral Tablets (5 mg and 50 mg) compared to placebo in healthy subjects.\n(i) To characterize the safety and tolerability of single ascending doses of Compound 1 in healthy subjects; (ii) To characterize the safety and tolerability of Compound 1 administered for 14 or up to 21 days in healthy subjects; (iii) To characterize the pharmacokinetics in plasma and cerebrospinal fluid (CSF) after administration of Compound 1 for 7 days in healthy subjects; (iv) To characterize the food effect on the pharmacokinetics (PK) in plasma of Compound 1 after administration of a single dose of Compound 1 in healthy subjects; and, (v) To characterize the safety and tolerability of Compound 1 administered for up to 28 days in healthy subjects.\nThe study was monitored by a Safety Review Committee (SRC). […] Safety and tolerability was assessed by the SRC between each cohort prior to ascending from one dose level to the next higher dose level in Part 1 (single ascending dose [SAD]) and fart 2 (multiple ascending dose [MAD]), and prior to initiating Part 3 (CSF), Part 4 (FE), and Part 5.\nThe following parameters were defined as parameters regarding safety and tolerability: […]\nChange from baseline to each scheduled time point up to EOS for vital signs; Change from baseline to each scheduled time point up to EOS for ECG parameters; Change from baseline to each scheduled time point up to EOS for clinical laboratory tests; Changes from baseline in C-SSRS scores (Part 2, Part 3, and Part 5 only); Treatment-emergent adverse events (AEs) up to EOS; Treatment-emergent AEs leading to premature discontinuation of study drug; Treatment-emergent serious adverse events (SAEs) up to FOS; and, Abnormalities in physical examination."}}, "note": "“Also recorded” adds a separate entry of the source."}
{"smiles": "CC1(C)CC(n2nnc3cc(-c4ccc(-n5nccn5)cc4O)nnc32)CC(C)(C)N1", "note": "[Compound 1, 2-[3-(2,2,6,6-tetramethylpiperidin-4-yl)-3H-[1,2,3]triazolo[4,5-c]pyridazin-6-yl]-5-(2H-1,2,3-triazol-2-yl)phenol]", "values": [{"measurement": "lowering of HTT mRNA in whole blood", "setting": "HTT mRNA; MAD cohort, 15 mg or 30 mg for 14 days, 6 hours after dose on day 14", "result": "dose-dependent lowering"}, {"measurement": "time of treatment until HTT mRNA levels reached steady state", "setting": "HTT mRNA; Multiple Ascending Dose Study", "result": "4 to 5", "unit": "days"}, {"measurement": "lowering of HTT mRNA in whole blood", "setting": "HTT mRNA; SAD cohort, 24 hours after single dose of 5, 15, 45, 90 or 135 mg", "result": "dose-dependent lowering"}, {"measurement": "blood brain barrier penetration", "setting": "[1]", "result": "crosses the Blood Brain Barrier"}, {"measurement": "observation that set the NOAEL", "setting": "Rat toxicology (NOAEL)", "result": "germ cell exfoliation in epididymis and testes"}, {"measurement": "relation of HTT pre-mRNA splicing to protein lowering", "setting": "human HTT; bacterial artificial chromosome transgenic mouse model of HD", "result": "strong correlation between levels of HTT pre-mRNA splicing and the degree of protein lowering"}, {"measurement": "reduction of human HTT production in vivo", "setting": "human HTT; transgenic mouse models of Huntington's disease, results not yet published", "result": "effective in reducing human HTT production in vivo"}, {"measurement": "Compound 1 levels in the CSF compared with plasma", "setting": "[2]; healthy subjects, 30 mg daily dose", "result": "equal to or greater than levels observed in plasma; also recorded: at least equivalent or greater than levels observed in the plasma"}, {"measurement": "blood brain barrier penetration", "setting": "[2]; humans", "result": "crossed the blood brain barrier"}, {"measurement": "efflux", "setting": "[2]; humans", "result": "not subject to efflux"}, {"measurement": "overall incidence of AEs", "setting": "[3]; SAD and MAD portions, versus placebo", "result": "comparable between subjects who received placebo and those who received Compound 1"}, {"measurement": "laboratory abnormalities or ECG findings", "setting": "[3]; any dose, SAD and MAD portions", "result": "no clinically significant laboratory abnormalities or electrocardiogram (ECG) findings"}, {"measurement": "safety and tolerability", "setting": "[3]; healthy subjects, single doses 5 mg to 135 mg, multiple doses 15 mg and 30 mg up to 21 days", "result": "well-tolerated with no safety-related findings; also recorded: safe and generally well tolerated"}]}
